{
  "source": "patent US20200345725A1",
  "about": "“Methods and Compositions for Treating Cancer” (Omeros Corporation, priority 2019, published 2020)",
  "key": {"[1]": {"test_system": "human PBMCs", "test": "Th1 cytokines in supernatants of stimulated human PBMC, GPR174 inhibitor with adenosine pathway inhibitors (Examples 15, 18-22)", "format": "cell-based", "settings": "donor 7", "protocol": "Human PBMCs, obtained from a human volunteer donor, were dispensed at density of 1×10^6 cells/well in a 96-well flat-bottom plate and were stimulated in triplicate with 1 μg/mL anti-CD3 antibody (UCHT1) and 0.1 μg/mL anti-CD28 antibody (CD28.2) in the presence of:\nSupernatants from these cells were collected at 24 hours post-stimulation and the levels of IFN-γ were determined by ELISA assay. Statistical analysis was carried out using one-way ANOVA with Tukey's post-hoc multiple comparison's correction.\nHuman PBMCs, obtained from a human volunteer donor (donor 1), were dispensed in X-vivo15 media (Lonza) supplemented with Glutamax, penicillin and streptomycin, at density of 1×10^6 cells/well in a 96-well flat-bottom plate and were stimulated with 1 μg/mL anti-CD3 antibody (UCHT1) and 0.1 μg/mL anti-CD28 antibody (CD28.2) in the presence of:\nSupernatants from these cells were collected at 24 hours post-stimulation and the levels of IFN-γ, IL-2 and TNF were determined by ELISA assays.\nHuman PBMCs, obtained from two individual human volunteer donors (donor 2 and donor 3), were dispensed at density of 1×10^6 cells/well in a 96-well flat-bottom plate and were stimulated with 1 μg/mL anti-CD3 antibody (UCHT1) and 0.1 μg/mL anti-CD28 antibody (CD28.2) in the presence of:\nHuman PBMCs, obtained from twelve individual human volunteer donors were dispensed at density of 1×10^6 cells/well in a 96-well flat-bottom plate and were stimulated in triplicate with 1 μg/mL anti-CD3 antibody (UCHT1) and 0.1 μg/mL anti-CD28 antibody (CD28.2) in the presence of:\nA total of 44 experiments using PBMC from 12 healthy donors were tested (9 donors for GM-CSF), with each donor tested in 1 to 8 separate experiments, depending on the donor (1 to 4 experiments each for GM-CSF). […] Cytokines were detected in supernatants with the Legendplex (Biolegend) or the MSB (MesoScale) platforms. […] One-way ANOVA with Tukey's post-hoc multiple comparisons correction was performed to identify significant differences (FC, mean fold change; ****, p<0.0001, ***, p<0.001; **, p<0.01; *, p<0.05, ns, not significant).\nHuman PBMC (1×10^6 cells/well in a 96-well flat-bottom plate) obtained from donor 3 and donor 6 were stimulated with 1 μg/mL anti-CD3 antibody (UCHT1) and 0.1 μg/mL anti-CD28 antibody (CD28.2) in the presence of:\nSupernatants from these cells were collected at 24 hours post-stimulation and the levels of IFN-γ, IL-2, and TNF were determined with the MSD platform (MesoScale Discovery).\nHuman PBMC (1×10^6 cells/well in a 96-well flat-bottom plate) obtained from donor 7 were stimulated with 1 μg/mL […] (UCHT1) and 0.1 μg/mL anti-CD28 antibody (CD28.2) in the presence of:\nSupernatants from these cells were collected at 24 hours post-stimulation and the levels of IFN-γ, IL-2, TNF and GM-CSF were determined with the MSD platform (MesoScale Discovery).\nSupernatants from these cells were collected at 24 hours post-stimulation and the levels of IFN-γ, IL-2 and TNF were determined with the MSD platform (MesoScale Discovery)."}, "[2]": {"biological_target": "T1, ADBR2 (Homo sapiens, UniProt P07550)", "T1 construct": "host or cells: HEK293 or CHO cell lines (ATCC)", "T1 sequence (P07550 whole entry)": "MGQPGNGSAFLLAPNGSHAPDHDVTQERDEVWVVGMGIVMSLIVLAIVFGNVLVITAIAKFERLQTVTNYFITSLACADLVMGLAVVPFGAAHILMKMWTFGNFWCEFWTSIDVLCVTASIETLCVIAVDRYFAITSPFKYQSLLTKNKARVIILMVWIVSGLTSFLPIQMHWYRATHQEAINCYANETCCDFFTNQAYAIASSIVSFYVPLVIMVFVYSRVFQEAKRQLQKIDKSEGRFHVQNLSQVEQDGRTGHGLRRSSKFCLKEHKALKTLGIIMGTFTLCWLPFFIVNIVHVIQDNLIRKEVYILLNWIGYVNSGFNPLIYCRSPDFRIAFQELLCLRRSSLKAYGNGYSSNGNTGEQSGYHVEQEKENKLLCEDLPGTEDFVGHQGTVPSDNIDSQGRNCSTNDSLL", "test": "CRE-Luc reporter assay with control receptor ADBR2", "format": "cell-based"}, "[3]": {"settings": "high and low concentrations, ZM 0.1 μM"}, "[4]": {"settings": "no ZM, 0.3 μM (compound 20: 3 μM)"}, "[5]": {"settings": "no ZM, 1 μM (compound 20: 10 μM)"}, "[6]": {"settings": "with ZM-241385 0.1 μM, 0.3 μM (compound 20: 3 μM)"}, "[7]": {"settings": "with ZM-241385 0.1 μM, 1 μM (compound 20: 10 μM), label ZM = ZM alone"}},
  "note": "Marks after values point to notes of the source that are not given here.",
  "data": [
    {"smiles": "O=C(c1ccccc1)N1CCN(c2cc(N3CCCCC3)c(F)cc2[N+](=O)[O-])CC1", "note": "[compound 6]", "values": [
      {"measurement": "synergy with ZM on GM-CSF (greater than the sum of the increases with each inhibitor alone)", "setting": "[1]; [3]", "result": "synergized with ZM"},
      {"measurement": "synergy with ZM on IFN-γ (greater than the sum of the increases with each inhibitor alone)", "setting": "[1]; [3]", "result": "synergized with ZM"},
      {"measurement": "synergy with ZM on IL-2 (greater than the sum of the increases with each inhibitor alone)", "setting": "[1]; [3]", "result": "synergized with ZM"},
      {"measurement": "synergy with ZM on TNF (greater than the sum of the increases with each inhibitor alone)", "setting": "[1]; [3]", "result": "synergized with ZM"},
      {"measurement": "GM-CSF, ratio relative to vehicle control", "setting": "[1]; [4]", "result": "3.9*"},
      {"measurement": "IFN-γ, ratio relative to vehicle control", "setting": "[1]; [4]", "result": "2.0*"},
      {"measurement": "IL-2, ratio relative to vehicle control", "setting": "[1]; [4]", "result": "1.5*"},
      {"measurement": "TNF, ratio relative to vehicle control", "setting": "[1]; [4]", "result": "2.1*"},
      {"measurement": "GM-CSF, ratio relative to vehicle control", "setting": "[1]; [5]", "result": "2.9*"},
      {"measurement": "IFN-γ, ratio relative to vehicle control", "setting": "[1]; [5]", "result": "1.9*"},
      {"measurement": "IL-2, ratio relative to vehicle control", "setting": "[1]; [5]", "result": "1.5*"},
      {"measurement": "TNF, ratio relative to vehicle control", "setting": "[1]; [5]", "result": "2.1*"},
      {"measurement": "GM-CSF, ratio relative to vehicle control", "setting": "[1]; [6]", "result": "6.2*"},
      {"measurement": "IFN-γ, ratio relative to vehicle control", "setting": "[1]; [6]", "result": "3.1*"},
      {"measurement": "IL-2, ratio relative to vehicle control", "setting": "[1]; [6]", "result": "1.9*"},
      {"measurement": "TNF, ratio relative to vehicle control", "setting": "[1]; [6]", "result": "3.4*"},
      {"measurement": "GM-CSF, ratio relative to vehicle control", "setting": "[1]; [7]", "result": "6.0*"},
      {"measurement": "IFN-γ, ratio relative to vehicle control", "setting": "[1]; [7]", "result": "3.8*"},
      {"measurement": "IL-2, ratio relative to vehicle control", "setting": "[1]; [7]", "result": "2.1*"},
      {"measurement": "TNF, ratio relative to vehicle control", "setting": "[1]; [7]", "result": "4.0*"},
      {"measurement": "Gs pathway in the presence of ADBR2 (CRE-Luc reporter)", "setting": "[2]", "result": "did not inhibit"}
    ]}
  ]
}
